The results in this text go back to US6977296B2, “HUMAN CERVICAL CANCER SUPPRESSOR PROTEIN, POLYNUCLEOTIDE ENCODING THE PROTEIN, CELL TRANSFORMED WITH THE POLYNUCLEOTIDE AND METHOD FOR SUPPRESSING PROLIFERATION OF CANCER CELL USING THE EXPRESSION VECTOR” (priority 2000, dated 2005).

This assay deals with HeLa cervical cancer cells. Kind of assay: Adriamycin or UVC-triggered apoptosis: cell cycle kinetic analysis (PI, FACS). The assay is classed as cell-based, human. As to the method: To examine whether a drug or UV light triggers apoptosis of the cells transfected with HCCS-1 gene, the cell cycle kinetic analysis was conducted as described by Hedley, D. W.(in Flow Cytometry, DNA Analysis from Paraffin-embedded Blocks (eds Darzynkiewicz, Z. & Crissman, H. A.) 139 (Academic Press, San Diego, 1990)).
HeLa cells transfected with HCCS-1 gene obtained in Step 2 of Example 4 and parental wild-type cells were cultured until mid-log phase and incubated in Waymouth MB 752/1 medium containing 0.5% bovine calf serum for 36 hours to arrest the cell growth at G0/G1 phase. The cells were treated with adriamycin (0.1 and 2 μg/ml, respectively) or UVC (50 J/m^2) and then the cells were cultured in Waymouth MB 752/1 medium containing 0.5% bovine calf to resume the cell growth. After 24 hours, HeLa cells were harvested, treated with trypsin, and fixed in 70% ethanol.
50 μg/ml of PI staining solution (Sigma) and 100 units/ml of RNase A (Boerhinger Mannheim) were added to 2×10^6 of the fixed cells. After incubation for 1 hour, the cellular DNA content was determined by fluorescence analysis at 488 nm using a FACS Caliber (Becton Dickinson). A minimum of 1×10^4 cells per sample was analyzed with Modfit 5.2 software.

As for `COc1cccc2c1C(=O)c1c(O)c3c(c(O)c1C2=O)C[C@@](O)(C(=O)CO)C[C@@H]3O[C@H]1C[C@H](N)[C@H](O)[C@H](C)O1` [adriamycin], where the note is “adriamycin 0.1 and 2 μg/ml, 24 hours”, the “differences in cell populations with respect to cell cycle progression between wild-type and HCCS-1-transfected HeLa cells” value is recorded as “no significant differences”. Besides, for the setting “wild-type HeLa cells, 24 hours after adriamycin 0.1 and 2 μg/ml”, the “cells in apoptotic sub G0/G1-phase” value was “few cells remained in apoptotic sub G0/G1-phase”.
